Source: PubChem BioAssay AID1963851 (Molecular Pharmacology Branch, DTP, NCI, 2024)

System: 188146-221-R-J1-PDC complex spheroid viability
Assay: Anticancer human tumor 188146-221-R-J1-PDC patient-derived colon adenocarcinoma cell line growth inhibition [POLQ]
Conditions: for IC50: curve of first compound; for viability, T/C: stronger effect = lower value
How it was run: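 Three-cell-type spheroids modelling solid tumor plus stroma served as the readout system; POL inhibitors were tested individually and in combination, concentration ranges set by clinical Cmax where known.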

[1] = second compound 0.0316 µM, first compound 0.00316 µM
[2] = second compound 0.0316 µM, first compound 0.01 µM
[3] = second compound 0.0316 µM, first compound 0.0316 µM
[4] = second compound 0.0316 µM, first compound 0.1 µM
[5] = second compound 0.1 µM, first compound 0.00316 µM
[6] = second compound 0.1 µM, first compound 0.01 µM
[7] = second compound 0.1 µM, first compound 0.0316 µM
[8] = second compound 0.1 µM, first compound 0.1 µM
[9] = second compound 0.316 µM, first compound 0.00316 µM
[10] = second compound 0.316 µM, first compound 0.01 µM
[11] = second compound 0.316 µM, first compound 0.0316 µM
[12] = second compound 0.316 µM, first compound 0.1 µM
[13] = second compound 1 µM, first compound 0.00316 µM
[14] = second compound 1 µM, first compound 0.01 µM
[15] = second compound 1 µM, first compound 0.0316 µM
[16] = second compound 1 µM, first compound 0.1 µM
[17] = second compound 3.16 µM, first compound 0.00316 µM
[18] = second compound 3.16 µM, first compound 0.01 µM
[19] = second compound 3.16 µM, first compound 0.0316 µM
[20] = second compound 3.16 µM, first compound 0.1 µM
[21] = second compound 10 µM, first compound 0.00316 µM
[22] = second compound 10 µM, first compound 0.01 µM
[23] = second compound 10 µM, first compound 0.0316 µM
[24] = second compound 10 µM, first compound 0.1 µM
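Note: spheroids exposed to compounds for seven days.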
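Throughout, for viability, T/C: 100% = DMSO vehicle control viability.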

CC[C@@]1(O)C(=O)OCc2c1cc1n(c2=O)Cc2cc3c(CN(C)C)c(O)ccc3nc2-1 + COC1C(OC(N)=O)C(O)C(Oc2ccc3c(O)c(NC(=O)c4ccc(O)c(CC=C(C)C)c4)c(=O)oc3c2C)OC1(C)C
IC50 (second compound 0.0316 µM): > 100 nM
IC50 (second compound 0.1 µM): > 100 nM
IC50 (second compound 0.316 µM): > 100 nM
IC50 (second compound 1 µM): > 100 nM
IC50 (second compound 3.16 µM): > 100 nM
IC50 (second compound 10 µM): > 100 nM
viability, T/C (second compound 0.0316 µM, first compound 0.000316 µM): 109%
viability, T/C (second compound 0.0316 µM, first compound 0.001 µM): 98.7%
viability, T/C [1]: 102%
viability, T/C [2]: 101%
viability, T/C [3]: 98.8%
viability, T/C [4]: 68.2%
viability, T/C (second compound 0.1 µM, first compound 0.000316 µM): 97.7%
viability, T/C (second compound 0.1 µM, first compound 0.001 µM): 100%
viability, T/C [5]: 89.8%
viability, T/C [6]: 101%
viability, T/C [7]: 87.9%
viability, T/C [8]: 66.5%
viability, T/C (second compound 0.316 µM, first compound 0.000316 µM): 106%
viability, T/C (second compound 0.316 µM, first compound 0.001 µM): 95.9%
viability, T/C [9]: 107%
viability, T/C [10]: 98.1%
viability, T/C [11]: 89.2%
viability, T/C [12]: 73.9%
viability, T/C (second compound 1 µM, first compound 0.000316 µM): 111%
viability, T/C (second compound 1 µM, first compound 0.001 µM): 104%
viability, T/C [13]: 109%
viability, T/C [14]: 104%
viability, T/C [15]: 90.1%
viability, T/C [16]: 79.3%
viability, T/C (second compound 3.16 µM, first compound 0.000316 µM): 104%
viability, T/C (second compound 3.16 µM, first compound 0.001 µM): 102%
viability, T/C [17]: 94.5%
viability, T/C [18]: 91.6%
viability, T/C [19]: 102%
viability, T/C [20]: 67.3%
viability, T/C (second compound 10 µM, first compound 0.000316 µM): 96.2%
viability, T/C (second compound 10 µM, first compound 0.001 µM): 90.7%
viability, T/C [21]: 99.5%
viability, T/C [22]: 94.6%
viability, T/C [23]: 92.1%
viability, T/C [24]: 62.9%

CC(=O)O[C@H]1C(=O)[C@@]2(C)[C@H]([C@H](OC(=O)c3ccccc3)[C@]3(O)C[C@H](OC(=O)[C@H](O)[C@@H](NC(=O)c4ccccc4)c4ccccc4)C(C)=C1C3(C)C)[C@]1(OC(C)=O)CO[C@@H]1C[C@@H]2O + COC1C(OC(N)=O)C(O)C(Oc2ccc3c(O)c(NC(=O)c4ccc(O)c(CC=C(C)C)c4)c(=O)oc3c2C)OC1(C)C
IC50 (second compound 0.0316 µM): 16.4 nM
IC50 (second compound 0.1 µM): 17.2 nM
IC50 (second compound 0.316 µM): 16.8 nM
IC50 (second compound 1 µM): 14.4 nM
IC50 (second compound 3.16 µM): 17.2 nM
IC50 (second compound 10 µM): 16 nM
viability, T/C (second compound 0.0316 µM, first compound 0.00949 µM): 76%
viability, T/C (second compound 0.0316 µM, first compound 0.03 µM): 21%
viability, T/C (second compound 0.0316 µM, first compound 0.0949 µM): 10.8%
viability, T/C (second compound 0.0316 µM, first compound 0.3 µM): 10.2%
viability, T/C (second compound 0.0316 µM, first compound 0.949 µM): 10.4%
viability, T/C (second compound 0.0316 µM, first compound 3 µM): 9.91%
viability, T/C (second compound 0.1 µM, first compound 0.00949 µM): 80.1%
viability, T/C (second compound 0.1 µM, first compound 0.03 µM): 21.7%
viability, T/C (second compound 0.1 µM, first compound 0.0949 µM): 12.2%
viability, T/C (second compound 0.1 µM, first compound 0.3 µM): 9.8%
viability, T/C (second compound 0.1 µM, first compound 0.949 µM): 8.82%
viability, T/C (second compound 0.1 µM, first compound 3 µM): 9.35%
viability, T/C (second compound 0.316 µM, first compound 0.00949 µM): 75.9%
viability, T/C (second compound 0.316 µM, first compound 0.03 µM): 24.3%
viability, T/C (second compound 0.316 µM, first compound 0.0949 µM): 9.19%
viability, T/C (second compound 0.316 µM, first compound 0.3 µM): 11.9%
viability, T/C (second compound 0.316 µM, first compound 0.949 µM): 9.74%
viability, T/C (second compound 0.316 µM, first compound 3 µM): 11.2%
viability, T/C (second compound 1 µM, first compound 0.00949 µM): 66.3%
viability, T/C (second compound 1 µM, first compound 0.03 µM): 21.7%
viability, T/C (second compound 1 µM, first compound 0.0949 µM): 10.2%
viability, T/C (second compound 1 µM, first compound 0.3 µM): 10%
viability, T/C (second compound 1 µM, first compound 0.949 µM): 10.6%
viability, T/C (second compound 1 µM, first compound 3 µM): 9.98%
viability, T/C (second compound 3.16 µM, first compound 0.00949 µM): 84%
viability, T/C (second compound 3.16 µM, first compound 0.03 µM): 18.2%
viability, T/C (second compound 3.16 µM, first compound 0.0949 µM): 12.6%
viability, T/C (second compound 3.16 µM, first compound 0.3 µM): 8.24%
viability, T/C (second compound 3.16 µM, first compound 0.949 µM): 11.4%
viability, T/C (second compound 3.16 µM, first compound 3 µM): 10.8%
viability, T/C (second compound 10 µM, first compound 0.00949 µM): 75.6%
viability, T/C (second compound 10 µM, first compound 0.03 µM): 19.2%
viability, T/C (second compound 10 µM, first compound 0.0949 µM): 11.2%
viability, T/C (second compound 10 µM, first compound 0.3 µM): 9.41%
viability, T/C (second compound 10 µM, first compound 0.949 µM): 12.8%
viability, T/C (second compound 10 µM, first compound 3 µM): 11.8%

COc1cccc(OCCCN)c1-c1cc(Nc2cnc(C#N)cn2)n[nH]1 + Cc1cccc(N(C)C(=O)C2C(O)CCN2c2nc(C)cc(C(F)(F)F)c2C#N)c1
IC50 (second compound 0.0316 µM): 55.5 nM
IC50 (second compound 0.1 µM): 60.9 nM
IC50 (second compound 0.316 µM): 51.5 nM
IC50 (second compound 1 µM): 41.2 nM
IC50 (second compound 3.16 µM): 47.3 nM
IC50 (second compound 10 µM): 22.2 nM
viability, T/C [1]: 100%
viability, T/C [2]: 103%
viability, T/C [3]: 61.5%
viability, T/C [4]: 36.1%
viability, T/C (second compound 0.0316 µM, first compound 0.316 µM): 18.5%
viability, T/C (second compound 0.0316 µM, first compound 1 µM): 12.1%
viability, T/C [5]: 99.9%
viability, T/C [6]: 90%
viability, T/C [7]: 75.8%
viability, T/C [8]: 30.7%
viability, T/C (second compound 0.1 µM, first compound 0.316 µM): 15.9%
viability, T/C (second compound 0.1 µM, first compound 1 µM): 14.2%
viability, T/C [9]: 105%
viability, T/C [10]: 89.7%
viability, T/C [11]: 66%
viability, T/C [12]: 29.6%
viability, T/C (second compound 0.316 µM, first compound 0.316 µM): 17.4%
viability, T/C (second compound 0.316 µM, first compound 1 µM): 13.6%
viability, T/C [13]: 113%
viability, T/C [14]: 104%
viability, T/C [15]: 54.4%
viability, T/C [16]: 29%
viability, T/C (second compound 1 µM, first compound 0.316 µM): 17.1%
viability, T/C (second compound 1 µM, first compound 1 µM): 12.6%
viability, T/C [17]: 91.7%
viability, T/C [18]: 82.1%
viability, T/C [19]: 62.8%
viability, T/C [20]: 27.7%
viability, T/C (second compound 3.16 µM, first compound 0.316 µM): 15.6%
viability, T/C (second compound 3.16 µM, first compound 1 µM): 14%
viability, T/C [21]: 96%
viability, T/C [22]: 75.3%
viability, T/C [23]: 37.3%
viability, T/C [24]: 24.4%
viability, T/C (second compound 10 µM, first compound 0.316 µM): 16.9%
viability, T/C (second compound 10 µM, first compound 1 µM): 14.6%
